Test results taken from US20250099383A1, “COMPOSITIONS AND METHODS FOR DELIVERY OF NUCLEIC ACIDS” (Poseida Therapeutics, Inc., priority 2022, published 2025).

Experiment: Physical characteristics of LNPs (particle size, PDI)
Format: physicochemical
Conditions: for PDI DNA / Particle Size (nm) DNA: LNP with Fluc DNA, compound/DOPE/Cholesterol/DMG-PEG2000 38/50/10.0/2.0, Lipid:DNA 45:1 (w/w); for PDI RNA / Particle Size (nm) RNA: LNP with Fluc mRNA, compound/DOPE/Cholesterol/DMG-PEG2000 41.44/45.85/10/2.7, Lipid:RNA 40:1 (w/w)
Procedure: LNP compositions of the present disclosure comprising exemplary compounds of Formula (I) were prepared by combining various percentages of an exemplary compound of Formula (I), the phospholipid DOPE, the structural lipid cholesterol (Chol) and 1,2-dimyristoyl-sn-glycerol methoxypolyethylene glycol (DMG-PEG2000; Avanti Polar Lipids, Alabaster, Alabama, USA).
Individual 25 mg/ml stock solutions were prepared by solubilizing the lipids in 200-proof HPLC-grade ethanol and stock solutions were stored at −80° C. until formulated. At the time of formulation, the lipid stock solutions were briefly allowed to equilibrate to room temp and then placed on a hot plate maintained at a temperature range of 50-55° C.
A 1 mg/ml solution of the desired mRNA or DNA to be incorporated into the LNPs was added to 150 mM sodium acetate buffer (pH 5.2) to form a stock solution and kept on ice. The aqueous mRNA or DNA was then added to the lipids as shown in Table 4 or 5 and hand-mixed vigorously with a single channel pipettor.
The resultant mRNA or DNA LNP compositions were then transferred to a Repligen Float-A-Lyzer dialysis device-having a molecular weight cut off (MWCO) of 8-10 kDa (Spectrum Chemical Mfg. Corp, CA, USA) and processed by dialysis against phosphate buffered saline (PBS) (dialysate: dialysis buffer volume at least 1:200 v/v), pH 7.4 overnight at 4° C. (or alternatively room temperature for at least 4 hours), to remove the 25% ethanol and achieve a complete buffer exchange. In some experiments the LNPs were further concentrated by in an Amicon® Ultra-4 centrifugal filter unit, MWCO-30 kDa (Millipore Sigma, USA) spun at ˜4100 x g in an ultracentrifuge. The mRNA and DNA LNPs were then stored at 4° C. until further use.
LNP compositions of the present disclosure comprising mRNA or DNA encoding firefly luciferase (hereafter “Fluc”; TriLink) and COMPOUNDS 5-49 were prepared as described in Example 61 by combining one of COMPOUNDS 5-49, the phospholipid DOPE, the structural lipid cholesterol (Chol) and 1,2-dimyristoyl-sn-glycerol methoxypolyethylene glycol (DMG-PEG2000) in the percentages presented in Tables 6 and 7:
The physical characteristics of the resulting LNPs were analyzed.
A 1 mg/ml solution of the 5′-CleanCap--fLuciferase mRNA (TriLink Biotech) to be incorporated into the LNPs was added to 150 mM sodium acetate buffer (pH 5.2) to form a stock solution and kept on ice. The lipid phase was mixed with the aqueous mRNA phase inside a microfluidic chip using a NanoAssemblr® instrument (Precision Nanosystems, Vancouver, BC, Canada) according to the manufacturer's instructions to form LNP compositions comprising encapsulated mRNAs.
The average particle size diameter of the LNPs was approximately 75-150 nm.

Structure (SMILES)	PDI DNA	Particle Size (nm) DNA [nm]	PDI RNA	Particle Size (nm) RNA [nm]
CC(C)CCCC(C)CCCC1CCC(C(=O)OCCOC(=O)CCN(CCC(=O)OCCOC(=O)C2CCC(CCCC(C)CCCC(C)C)CC2)CC(C)N(CCC(=O)OCCOC(=O)C2CCC(CCCC(C)CCCC(C)C)CC2)CCC(=O)OCCOC(=O)C2CCC(CCCC(C)CCCC(C)C)CC2)CC1 (stereo not drawn) [Compound 15]	0.183	297.6	0.115	362.5
CC(C)CCCC1CCC(C(=O)OCCOC(=O)CCN(CCC(=O)OCCOC(=O)C2CCC(CCCC(C)C)CC2)CCN2CCCCC2)CC1 (stereo not drawn) [Compound 26]	0.151	162.1	0.202	169.4
CC(C)CCCC1CCC(C(=O)OCCOC(=O)CCN(CCCN(C)C)CCC(=O)OCCOC(=O)C2CCC(CCCC(C)C)CC2)CC1 (stereo not drawn) [Compound 25]	0.227	188.5	0.143	177.9
CC(C)=CCCC1=CCC(C(=O)OCCOC(=O)CCN(CCC(=O)OCCOC(=O)C2CC=C(CCC=C(C)C)CC2)CCN(CCN(CCC(=O)OCCOC(=O)C2CC=C(CCC=C(C)C)CC2)CCC(=O)OCCOC(=O)C2CC=C(CCC=C(C)C)CC2)CCN(CCC(=O)OCCOC(=O)C2CC=C(CCC=C(C)C)CC2)CCC(=O)OCCOC(=O)C2CCC(CCC=C(C)C)CC2)CC1 (stereo not drawn) [Compound 24]	0.294	353.7	0.106	314.9
CC(C)CCCC(C)CCCC1CCC(C(=O)OCCOC(=O)CCN(CCCN(C)C)CCC(=O)OCCOC(=O)C2CCC(CCCC(C)CCCC(C)C)CC2)CC1 (stereo not drawn) [Compound 12, ((3,3′-((3-(dimethylamino)propyl)azanediyl)bis(propanoyl))bis(oxy)) bis(ethane-2,1-diyl)bis(4-(4,8-dimethylnonyl)cyclohexanecarboxylate)]	0.235	170.6	0.235	167.6
CC(C)=CCC/C(C)=C/CCC1=CCC(C(=O)OCCOC(=O)CCN(CCCCCCN(CCC(=O)OCCOC(=O)C2CC=C(CC/C=C(\C)CCC=C(C)C)CC2)CCC(=O)OCCOC(=O)C2CC=C(CC/C=C(\C)CCC=C(C)C)CC2)CCC(=O)OCCOC(=O)C2CC=C(CC/C=C(\C)CCC=C(C)C)CC2)CC1 (stereo not drawn) [Compound 7]	0.221	299.7	0.099	441.0
CC(C)CCCC(C)CCCC1CCC(C(=O)OCCOC(=O)CCN(CCC(=O)OCCOC(=O)C2CCC(CCCC(C)CCCC(C)C)CC2)CCN2CCCCC2)CC1 (stereo not drawn) [Compound 13, ((3,3′-((2-(piperidin-1-yl)ethyl)azanediyl)bis(propanoyl))bis(oxy)) bis(ethane-2,1-diyl)bis(4-(4,8-dimethylnonyl)cyclohexanecarboxylate)]	0.232	174.1	0.272	120.6
CC(C)CCCC1CCC(C(=O)OCCOC(=O)CCN(CCCCCCN(CCC(=O)OCCOC(=O)C2CCC(CCCC(C)C)CC2)CCC(=O)OCCOC(=O)C2CCC(CCCC(C)C)CC2)CCC(=O)OCCOC(=O)C2CCC(CCCC(C)C)CC2)CC1 (stereo not drawn) [Compound 27]	0.177	253.9	0.149	293.9
CC(C)=CCCC1=CCC(C(=O)OCCOC(=O)CCN(CCCCCCN(CCC(=O)OCCOC(=O)C2CC=C(CCC=C(C)C)CC2)CCC(=O)OCCOC(=O)C2CC=C(CCC=C(C)C)CC2)CCC(=O)OCCOC(=O)C2CC=C(CCC=C(C)C)CC2)CC1 (stereo not drawn) [Compound 20]	0.223	304.3	0.082	316.9
CC(C)CCCC1CCC(C(=O)OCCOC(=O)CCN(CCC(=O)OCCOC(=O)C2CCC(CCCC(C)C)CC2)CC(C)N(CCC(=O)OCCOC(=O)C2CCC(CCCC(C)C)CC2)CCC(=O)OCCOC(=O)C2CCC(CCCC(C)C)CC2)CC1 (stereo not drawn) [Compound 28]	0.12	224.7	0.027	254.2

Further lines, results first:

PDI DNA	Particle Size (nm) DNA [nm]	PDI RNA	Particle Size (nm) RNA [nm]	Structure (SMILES)
0.185	286.7	0.079	310.1	CCN(CCOC(=O)C1CC=C(CCC=C(C)C)CC1)CCOC(=O)C1CC=C(CCC=C(C)C)CC1 (stereo not drawn) [Compound 43]
0.129	298.2	0.149	364.7	CC(C)=CCC/C(C)=C/CCC1=CCC(C(=O)OCCN(CCOC(=O)C2CC=C(CC/C=C(\C)CCC=C(C)C)CC2)C(C)(C)C)CC1 (stereo not drawn) [Compound 35]
0.09	289.2	0.108	269.6	CC(C)=CCC/C(C)=C/CCC1=CCC(C(=O)OCCN(C)CCOC(=O)C2CC=C(CC/C=C(\C)CCC=C(C)C)CC2)CC1 (stereo not drawn) [Compound 32]
0.087	302	0.079	332.9	CCN(CCOC(=O)C1CC=C(CC/C=C(\C)CCC=C(C)C)CC1)CCOC(=O)C1CC=C(CC/C=C(\C)CCC=C(C)C)CC1 (stereo not drawn) [Compound 33]
0.085	295.1	0.057	306.1	CCCCCCCC/C=C\CCCCCCCC(=O)OCCN(C)CCOC(=O)C1CC=C(CC/C=C(\C)CCC=C(C)C)CC1 (stereo not drawn) [Compound 41]
0.128	290.2	0.127	386.4	CCCCN(CCOC(=O)C1CC=C(CC/C=C(\C)CCC=C(C)C)CC1)CCOC(=O)C1CC=C(CC/C=C(\C)CCC=C(C)C)CC1 (stereo not drawn) [Compound 34]
0.082	340.4	0.131	356.1	CC(C)=CCCC1=CCC(C(=O)OCCN(CCOC(=O)C2CC=C(CCC=C(C)C)CC2)C(C)(C)C)CC1 (stereo not drawn) [Compound 45]
0.202	291.3	0.088	324.9	CC(C)=CCCC1=CCC(C(=O)OCCN(CCOC(=O)C2CC=C(CCC=C(C)C)CC2)CCOC(=O)C2CC=C(CCC=C(C)C)CC2)CC1 (stereo not drawn) [Compound 48]
0.102	270	0.09	329	CCCCN(CCOC(=O)C1CC=C(CCC=C(C)C)CC1)CCOC(=O)C1CC=C(CCC=C(C)C)CC1 (stereo not drawn) [Compound 44]
0.146	251.2	0.179	255.5	CC(C)=CCC/C(C)=C/CCC1=CCC(C(=O)OCCN(C)CCO)CC1 (stereo not drawn) [Compound 40]
0.203	187.9	0.200	180.3	CC(C)=CCC/C(C)=C/CCC1=CCC(C(=O)OCCOC(=O)CCN(CCCN(C)C)CCC(=O)OCCOC(=O)C2CC=C(CC/C=C(\C)CCC=C(C)C)CC2)CC1 (stereo not drawn) [Compound 5, (E)-((3,3′-((3-(dimethylamino)propyl)azanediyl)bis(propanoyl))bis(oxy)) bis(ethane-2,1-diyl)bis(4-((E)-4,8-dimethylnona-3,7-dien-1-yl)cyclohex-3-enecarboxylate)]
0.208	398.8	0.128	359.7	CC(C)=CCC/C(C)=C/CCC1=CCC(C(=O)OCCN(CCOC(=O)C2CC=C(CC/C=C(\C)CCC=C(C)C)CC2)CCOC(=O)C2CC=C(CC/C=C(\C)CCC=C(C)C)CC2)CC1 (stereo not drawn) [Compound 38]
0.165	337.2	0.091	356.2	CC(C)=CCC/C(C)=C/CCC1=CCC(C(=O)OCCOC(=O)CN(C)CC(=O)OCCOC(=O)C2CC=C(CC/C=C(\C)CCC=C(C)C)CC2)CC1 (stereo not drawn) [Compound 37]
0.223	357.6	0.122	363.7	CC(C)=CCCC1=CCC(C(=O)OCCOC(=O)CN(C)CC(=O)OCCOC(=O)C2CC=C(CCC=C(C)C)CC2)CC1 (stereo not drawn) [Compound 47]
